What was measured:
Wistar rats [1] = assay: Elevated T-maze test after water-immersion stress, oral aqueous solutions (Example 6); assay type: in vivo, rat
Method: Seven-week Wistar rats (male, Nippon Charles-River) were used. For 7 days, the normal diet (CRF-1; Oriental Yeast) was fed ad libitum to the rats, for preliminary feeding. For the stress experiment, the rats were divided into the following three groups for feeding for another 3 days under starvation conditions: 1) a group (N=14) fed with an aqueous glutamine solution (120 mg/mL); 2) a group (N=14) given with an aqueous lysine solution (120 mg/mL); and 3) a group (N=14) given with an aqueous mixture solution of lysine glutamate salt (120 mg/mL) and arginine (120 mg/mL). The aqueous solutions were given to the individual groups in such a manner that dosing of 5 mL of each solution was enforced with an oral probe, once daily at 9:00 in the morning. During the term, water was fed ad libitum. On day 4, the rats were placed in a stress gage (Natsume Seisakusho; KN-468) to immerse the rats in water (temperature of 22 to 25° C.) so as to soak their breast for 4 hours for stress loading. Thereafter, elevated T-maze (see Example 1) test was done, for counting the time duration for searching action.

[2] = tested on: mojyako (young yellow tail); assay: Feeding test under stress from feeding at high density in a water tank (Example 7); assay type: in vivo; conditions: for Total feed intake: 24 feeding days; for Daily feeding ratio (%) / Daily increment (%) / Feed efficiency (%) / Survival rate (%): 28 day test; for Survival rate (%): 40 fish per 800-L tank; for feed intake compared with the remaining experimental lots (involving higher body weight increment): over the 3 week to 4 week
Method: Test feeds were prepared by adding lysine hydrochloride salt at the ratio shown in Table 3 below to a commercially available mashed feed for mojyako. The lysine content in the dry feed is thereby at 4.8%, which is far above the dietetic requirement (1.78%). For comparison, further, a feed was prepared by adding arginine hydrochloride salt at the same level instead of lysine hydrochloride salt, for use at the test.
As test fish, each group of 40 mojyako fishes of mean fish body weight of about 35 g were placed in one 800-L water tank, to which the feeds were fed two times daily at 8:00 in the morning and 16:00 in the afternoon to satiation, for a total of 4 weeks. During the term, their body weights were measured weekly. Herein, feeding was not done at 16:00 in the afternoon on the day before the day for body weight measurement.

rats = assay: Water-immersion restraint model of stress-induced gastric ulcer, diets (Example 3); assay type: in vivo, rat; conditions: 3-week feeding, 18 h starvation, water immersion 6 hours at 22 to 25 C
Method: Rats were fed with the low lysine diet and the lysine-added diet supplemented for lysine deficiency (see Table 1) for 3 weeks. After starvation for 18 hours, the rats were placed in a stress gage (Natsume Seisakusho; KN-468) to immerse the rats in water (temperature of 22 to 25° C.) so as to soak their breast for 6 hours. Thereafter, a stomach was resected, to calculate the area with gastric bleeding, to examine the degree of gastric bleeding with the NHI image software. […] A correlation between gastric bleeding and the incidence of gastric ulcer is observed in this model. Therefore, it can be concluded that adding lysine to diet can prevent stress-induced gastric ulcer occurring on the low lysine diet.

Wistar rats [3] = assay: Model with stress-induced appetite loss, foot shock stress (Example 4); assay type: in vivo, rat; conditions: lysine-added diet (27 g/kg) vs control diet (13.4 g/kg), fed from 4 days before foot shock stress
Method: Wistar rats (male; age 13 weeks; about 400 g or so; N=16) were used at this experiment. Four days before the start of the experiment and throughout the stress experiment, the rats were fed with normal diet (control diet; lysine at 13.4 g/kg) and the lysine-added diet (27 g/kg). Under conditions of water ad libitum, feeding was done from 9:00 to 11:00. The rats were subjected to foot shock stress (1 mA/3 minutes; once per one hour at 19:00 to 7:00 on the next day) on day 4 of feeding; foot shock stress (1 mA/3 minutes, once per 2 hours at 19:00 to 7:00 on the next day) on day 5; and foot shock stress (1 mA/3 minutes, once at 7:00) on day 6. The changes in the total feed intake each day and the change of body weight over days were measured.

Wistar rats [4] = assay: Stress-induced gastric ulcer experiment, oral aqueous solutions (Example 5); assay type: in vivo, rat; conditions: 5 mL orally once daily for 3 days, water immersion 5 hours on day 4; compared with control group fed pure water
Method: To assess the effects of lysine administration on stress-induced gastric ulcers, 7-week Wistar rats (male; Nippon Charles-River) were used. For 7 days, normal diet (CRF-1; Oriental Yeast) was fed ad libitum to the rats, for preliminary feeding. For the stress experiment, rats were divided into the following three groups for feeding for another 3 days under starvation conditions: I) a control group (N=8) fed with pure water; 2) a group (N=8) given with an aqueous lysine solution (40 mg/mL); and 3) a group (N=4) given with an aqueous mixture solution of lysine glutamate salt (40 mg/mL) and arginine (40 mg/mL). The aqueous solutions were given to the individual groups in such a manner that dosing of 5 mL of each solution was enforced with an oral probe, once daily at 9:00 in the morning.
During the term, water was fed ad libitum. On day 4, the rats were placed in a stress gage (Natsume Seisakusho; KN-468) as in Example 3, to immerse the rats in water (temperature of 22 to 25° C.) so as to soak their breast for 5 hours to induce stress-induced gastric ulcer.

[5] = tested on: Broiler (species: Arbor Acres); assay: Broiler feeding at normal and high density under very hot conditions (Example 8); assay type: in vivo; conditions: loading of lysine alone, ratio of arginine/lysine in the feed lowered
From the text: Broiler (species: Arbor Acres) was fed under very hot conditions.
The feeding density was 8 chickens/1 m^2 (normal density) and 12 chickens/1 m^2 (high density) in two lots; the feeds were the following three groups: Feed 1=normal feed; Feed 2=normal feed+lysine (the lysine content 2-fold that in Feed 1); or Feed 3=normal feed+lysine+arginine (the lysine content and the arginine content were individually 2-fold those in Feed 1). A total of 6 experimental examples were set as combinations of the feeding densities and the feeds. The test was started on age 21 days (the mean body weight then was 722 g). The feeding results (body weight increment, feed requirement) on age 48 days were compared thereto. On the age 48 days, the chickens were sacrificed to death, for the evaluation of their meat quality (fat ratio in abdominal cavity). The feed requirement was expressed by the feed amount required for the increment of 1 g/body weight, as calculated by dividing the total feed intake by the body weight increment.

SMILES | Total feed intake [2] [g] | Daily feeding ratio (%) [2] [%] | Daily increment (%) [2] [%] | Feed efficiency (%) [2] [%] | Survival rate (%) [2] [%] | Mean body weight at start [2] | Weekly feed intake (g) for 0-1 week [2] [g] | Weekly feed intake (g) for 1-2 week [2] [g] | Weekly feed intake (g) for 2-3 week [2] [g] | Weekly feed intake (g) for 3-4 week [2] [g] | Mean body weight on 1 week [2] | Mean body weight on 2 week [2] | Mean body weight on 3 week [2] | Mean body weight on 4 week (final) [2] | feed intake compared with the remaining experimental lots (involving higher body weight increment) [2] | also measured
NC(=O)CC[C@H](N)C(=O)O [glutamine, L-Glutamine, reference compound] | – | – | – | – | – | – | – | – | – | – | – | – | – | – | – | time duration for searching action, glutamine group vs physiological saline group (Wistar rats [1]; evaluation of the effect of glutamine): No significant difference
N=C(N)NCCC[C@H](N)C(=O)O [Arginine, L-Arginine, reference compound] | 3072 | 4.09 | 3.36 | 82.0 | 100 | 35.5 | 18.7 | 36.7 | 54.5 | 76.8 | 45.7 | 61.5 | 77.6 | 98.5 | could not be obtained | –
NCCCC[C@H](N)C(=O)O [Lysine, L-Lysine] | 3452 | 4.29 | 3.68 | 85.8 | 100 | 34.8 | 18.4 | 38.3 | 59.9 | 86.3 | 46.4 | 63.7 | 84.2 | 108.9 | larger | degree in areas of gastric bleeding (ratio of the area of gastric bleeding to the total gastric area) (rats): can prevent; effect on total feed intake and body weight change under stress (Wistar rats [3]): preventive effect; areas of gastric bleeding (Wistar rats [4]): significant reduction; time duration for searching action (Wistar rats [1]; 5 mL orally once daily for 3 days, water immersion 4 hours on day 4, compared with the glutamine group): significantly prolonged; body weight increment compared with the control ([2]; at the termination of the test): 17%; growth inhibition [5]: no growth inhibition is observed

— patent US20040116527A1, “Agents against stress-induced diseases” (AJINOMOTO CO., INC., priority 2001, published 2004)
